Reference: PubChem BioAssay AID256 (DTP/NCI, 2004)
Toxic doses and inconclusive results are not listed. How the source made its calls: active means survival T/C of 150% or more; inactive means T/C below 125% in these data.

Tested on: CD2F1 mice, L1210 leukemia ip, survival T/C
Experiment: NCI In Vivo Anticancer Drug Screen. Data for tumor model L1210 Leukemia (intraperitoneal) in CD2F1 (CDF1) mice
Settings: endpoint: mean survival time, higher = longer survival
Procedure, shortened: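 Each value reflects a quotient of treated over vehicle control outcomes in mice with a transplanted tumor.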

[1] = dose: 50.0 mg/kg/injection, schedule: Q01DX009 (ip), vehicle: saline
[2] = dose: 100.0 mg/kg/injection, schedule: Q01DX009 (ip), vehicle: saline
[3] = dose: 100.0 mg/kg/injection, schedule: Q04DX003 (ip), vehicle: saline
[4] = dose: 200.0 mg/kg/injection, schedule: Q01DX009 (ip), vehicle: saline
[5] = dose: 200.0 mg/kg/injection, schedule: Q04DX003 (ip), vehicle: saline
[6] = dose: 100.0 mg/kg/injection, schedule: Q04DX002 (ip), vehicle: saline with Tween-80
[7] = dose: 200.0 mg/kg/injection, schedule: Q04DX002 (ip), vehicle: saline with Tween-80
[8] = dose: 400.0 mg/kg/injection, schedule: Q04DX002 (ip), vehicle: saline with Tween-80

Measured: T/C

CCOC(=O)c1cc(C)[nH]c(=O)c1C#N
inactive: dose: 25.0 mg/kg/injection, schedule: Q01DX009 (ip), vehicle: saline with Tween-80 93 % of control | dose: 25.0 mg/kg/injection, schedule: Q04DX003 (ip), vehicle: saline with Tween-80 102 % of control | dose: 50.0 mg/kg/injection, schedule: Q01DX009 (ip), vehicle: saline with Tween-80 96 % of control | dose: 50.0 mg/kg/injection, schedule: Q04DX003 (ip), vehicle: saline with Tween-80 102 % of control | dose: 100.0 mg/kg/injection, schedule: Q01DX009 (ip), vehicle: saline with Tween-80 93 % of control | dose: 100.0 mg/kg/injection, schedule: Q04DX003 (ip), vehicle: saline with Tween-80 98 % of control

Cc1cc(NC(=O)Nc2ccccc2C)no1
inactive: dose: 100.0 mg/kg/injection, schedule: Q01DX001 (ip), vehicle: saline with Tween-80 106 % of control | dose: 200.0 mg/kg/injection, schedule: Q01DX001 (ip), vehicle: saline with Tween-80 100 % of control | dose: 400.0 mg/kg/injection, schedule: Q01DX001 (ip), vehicle: saline with Tween-80 103 % of control

NC(CCC(=O)OCc1ccccc1)C(=O)OCc1ccccc1 (stereo not drawn)
inactive: [1] 106 % of control | [2] 93 % of control | [3] 97 % of control | [4] 87 % of control | [5] 108 % of control

CS(=N)(=O)c1ccccc1 (stereo not drawn)
inactive: [3] 105 % of control | [5] 103 % of control | dose: 400.0 mg/kg/injection, schedule: Q04DX003 (ip), vehicle: saline 94 % of control

CC#CCOCC(O)CO (stereo not drawn)
inactive: dose: 25.0 mg/kg/injection, schedule: Q01DX009 (ip), vehicle: water 98 % of control | dose: 50.0 mg/kg/injection, schedule: Q01DX009 (ip), vehicle: water 107 % of control | dose: 100.0 mg/kg/injection, schedule: Q01DX009 (ip), vehicle: water 104 % of control | dose: 200.0 mg/kg/injection, schedule: Q01DX009 (ip), vehicle: water 115 % of control

CCOC(=O)CO
inactive: [1] 104 % of control | [2] 93 % of control | [4] 101 % of control

CC(=O)OC1OC(CS[As](C)C)C(OC(C)=O)C(OC(C)=O)C1OC(C)=O (stereo not drawn)
inactive: dose: 50.0 mg/kg/injection, schedule: Q01DX009 (ip), vehicle: other 96 % of control | dose: 100.0 mg/kg/injection, schedule: Q01DX009 (ip), vehicle: other 108 % of control | dose: 200.0 mg/kg/injection, schedule: Q01DX009 (ip), vehicle: other 93 % of control

CNC(=S)N1CCSN1NC
inactive: [6] 91 % of control | [7] 95 % of control | [8] 86 % of control

O=C(COc1ccc(Cl)cc1)Oc1c(Cl)cc(Cl)cc1Cl
inactive: [6] 98 % of control | [7] 98 % of control | [8] 94 % of control
